Results as given in PubChem BioAssay AID1508591.

Conditions: rat; liver microsomes; pH 7.4; 15.0 min; 1.0 µM

| SMILES | half-life |
| --- | --- |
| CCN(CC)CCO[C@H]1CC[C@@]2(C)C(=CC[C@@H]3[C@@H]2CC[C@]2(C)C(=O)CC[C@@H]32)C1 | 5.67 min |
| CN([C@@H](Cc1ccc(OS(=O)(=O)c2cccc3cnccc23)cc1)C(=O)N1CCN(c2ccccc2)CC1)S(=O)(=O)c1cccc2cnccc12 | 1 min |
| Cc1noc(C)c1-c1csc(N2CCC(C(N)=O)CC2)n1 | > 30 min |
| CNC(=O)c1cc(Oc2ccc(NC(=O)Nc3ccc(Cl)c(C(F)(F)F)c3)c(F)c2)ccn1 | > 30 min |
| CN1Cc2c(cc(N3CCOCC3)nc2-c2ccccc2OC(F)(F)F)C1=O | > 30 min |
| COc1ccc(-n2nc(C)c([C@@H]3C=C[C@@H](NCc4cccc(Cl)c4)C3)c2C)cc1 | 4.19 min |
| Cc1ccc(S(=O)(=O)Nc2cc(Cl)ccc2C(=O)Nc2nc(-c3ccccc3)cs2)cc1 | 7.65 min |
| CC(C)(C)CC(C)(C)c1ccc(O)cc1 | 5.8 min |
| Cc1noc(C)c1CN1CCNc2cc(Nc3ccccc3)ncc2C1 | 5.25 min |
| Fc1ccc(Nc2nc(C3=CCNCC3)nc3ccccc23)cc1F | 6.1 min |
| CCCNC(=O)c1ccc2c(c1)N=C(C)c1c(C)ccc(C)c1S2 | 1.34 min |
| COc1ccc(OC)c(-c2nnc3n2N=C(c2c(OC)cccc2OC)CS3)c1 | 1.4 min |
| Cc1ccc(-c2cc(C(=O)Nc3ccc(S(=O)(=O)N(C)C)cc3)c3ccccc3n2)cc1C | 3.4 min |
| COc1ccc(CCn2c(N)cc(=O)[nH]c2=S)cc1OC | > 30 min |
| Brc1ccc(-c2csc(N3CCNCC3)n2)cc1 | 3.31 min |
| COc1cc(-c2nc(Cn3nnc(C(=O)Nc4cc(C)cc(C)c4)c3C)c(C)o2)cc(OC)c1OC | 20.6 min |
| CCOC(=O)C1=C(C)NC(=O)CC1C(=O)Nc1cc(Cl)cc(Cl)c1 (centres undefined) | 6.1 min |
| Cc1ccc(-c2csc(Nc3ccc(S(=O)(=O)Nc4nccs4)cc3)n2)cc1C | > 30 min |
| CCn1cc(C(=O)N2CCN(c3cccc(Cl)c3)CC2)c2cc(OC)c(OC)cc2c1=O | 7.12 min |
| Cc1ccc(CNc2ccccc2C(=O)Nc2nc(-c3ccccc3)cs2)cc1 | > 30 min |
| Cc1ccc(-c2cc(C(=O)Nc3ccc(S(N)(=O)=O)cc3)c3ccccc3n2)cc1C | > 30 min |
| O=C(O)c1cnc(-c2ccc(F)cc2)nc1-c1ccncc1 | > 30 min |
| CCCCN(CC)CCNC(=O)c1cc2c(-c3ccc(Cl)cc3)nn(C)c2s1 | 3.76 min |
| COc1cc(Cl)c(C)cc1NS(=O)(=O)c1c(C)nc2sccn2c1=O | 1.53 min |
| N#Cc1nc(-c2cccc3ccccc23)oc1NC1CNC1 | > 30 min |
| COc1cc(NC(=O)c2cc(-c3ccccc3O)no2)cc(OC)c1OC | 12.5 min |

| SMILES | half-life |
| --- | --- |
| C=Cc1ccc(Cn2c(C(=O)O)c(CNCc3ccccc3)c3ccc(OC)cc32)cc1 | 9.8 min |
| NC(=O)C1CCN(c2nc(-c3ccccc3)cs2)CC1 | 3.88 min |
| CCN(c1ccccc1)S(=O)(=O)c1cc(C(=O)Nc2ccc(Br)cc2)ccc1F | 1.5 min |
| Cc1noc(C)c1Cc1ccc(C(=O)N2CCc3c(nc4cc(-c5ccccc5)[nH]n4c3=O)C2)o1 | 3.38 min |
| Nc1cccc(CNc2ccc(S(=O)(=O)Nc3nccs3)cc2)c1O | > 30 min |
| CC(C)c1ccc(-n2ncc3c(=O)n(CC(=O)Nc4cc(F)ccc4Cl)cnc32)cc1 | 20 min |
| COCc1cc(C)nc(SCC(=O)c2ccc(O)c(O)c2)c1C#N | 19 min |
| CCCN1CNc2c(c(=O)[nH]c(=S)n2CCc2ccc(OC)c(OC)c2)C1 | 18 min |
| Cc1ccc(NC(=O)c2cc(S(=O)(=O)NCCC3=CCCCC3)ccc2F)cc1F | 2.07 min |
| c1ccc(-c2cc(Nc3nc(-c4ccncc4)nc4ccccc34)n[nH]2)cc1 | 11 min |
| CCOC(=O)c1nc(Nc2ccc(N3CCC(C)CC3)cc2)c2ccccc2n1 | 1.62 min |
| O=C(Nc1nc(-c2ccccc2)cs1)c1ccncc1NS(=O)(=O)c1ccc(C(F)(F)F)cc1 | 20 min |
| CCCCOc1ccc(CC(=O)NO)cc1 | > 30 min |
| Cc1cc(NS(=O)(=O)c2ccc3c(c2)CCC(=O)N3)ccc1F | 11.6 min |
| Cc1ccc(S(=O)(=O)Nc2ccc(C(=O)Nc3nc(-c4ccccc4)cs3)cc2Cl)cc1 | 4 min |
| Clc1ccc2ncc(-c3cccc(NC4CCNC4)n3)n2c1 (centres undefined) | 21.8 min |
| O=C(Nc1nc(-c2ccc(F)cc2)cs1)c1ccncc1NS(=O)(=O)c1ccc(F)cc1 | > 30 min |
| COc1ccc2[nH]c(=O)c(-c3noc(-c4ccccc4)n3)cc2c1 | > 30 min |
| C[C@H]1CN(C(=O)Nc2ccc(F)cc2F)C[C@@H]1c1nc(-c2ccccc2)no1 | > 30 min |
| O=C(c1ccncc1)N1CCC2(CCCN(C(c3ccccc3)c3ccccc3)C2)CC1 | 2.2 min |
| NC(=O)C1CCN(c2nc(-c3ccc(Br)cc3)cs2)CC1 | 2.06 min |
| CN(C)C(=O)c1nc(-c2ccc(S(C)(=O)=O)cc2)c2cnccn12 | > 30 min |
| Cc1ccc(NS(=O)(=O)c2ccc3[nH]c4c(c3c2)CCCCCC4)cc1 | 2.08 min |
| Fc1cc(Nc2nc(-c3ccncc3)nc3ccccc23)ccc1-c1cc(F)c(F)c(F)c1 | > 30 min |
| COc1ccc(CN2CCNc3cc(Nc4ccccc4)ncc3C2)cn1 | 10 min |
| CCN1CCN(C(=O)c2cc(-c3ccc(F)cc3)c3nncn3n2)CC1 | > 30 min |

| SMILES | half-life |
| --- | --- |
| Oc1ccc(CNc2cccc(F)c2)c2cccnc12 | 4.1 min |
| CNc1oc(-c2ccccc2-c2ccccc2)nc1C#N | 5.8 min |
| Ic1ccccc1CNC1C2CCN(CC2)C1C(c1ccccc1)c1ccccc1 (centres undefined) | 8.51 min |
| NC(=O)C1CCN(c2ncc(-c3ccc(Cl)cc3)s2)CC1 | 5.97 min |
| O=C(O)c1ccnc2cc(C(OCCN3CCCCC3)c3ccccc3Cl)[nH]c12 (centres undefined) | > 30 min |
| Cc1ccc(N2CCC(CNc3nc(-c4ccccc4C(C)C)ncc3C)CC2)cn1 | 2.6 min |
| O=C1CCC(C(=O)N2CCSCC2)CN1Cc1ccc(Cl)cc1 (centres undefined) | 10 min |
| CCN1C(=O)c2ccccc2[S@](=O)c2ccc(C(=O)NCc3ccc(F)cc3)cc21 | 12 min |
| CCOC(=O)c1ccnc2cc(C(OCCN3CCCCC3)c3ccccc3Cl)sc12 (centres undefined) | 2.34 min |
| Cc1nnc(-c2ccccc2C(C)C)nc1NCc1ccc(-c2cccnc2)cc1 | 5.8 min |
| O=C(Nc1cccc(Cc2ccccc2)c1)c1ccc(-c2cccc([N+](=O)[O-])c2)o1 | 2.5 min |
| COC(=O)c1ccccc1NC(=O)c1ccccc1OC(F)F | 2.8 min |
| Cc1cccc(C)c1C(=O)Nc1cccc([S+](=O)([O-])N(C)C)c1 | 8 min |
| CCCCOc1ccc(C2c3c(oc4ccc(C)cc4c3=O)C(=O)N2CCCN(C)C)cc1OCC (centres undefined) | 25.9 min |
| Cc1nn2c(c1-c1ccccc1-c1ccccc1)N(CCC(C)C)CCC2 | 1.31 min |
| NC(=O)C1CCN(c2ncc(-c3cccc(N4CCOCC4)c3)s2)CC1 | > 30 min |
| O=C(CCCc1ccc2cccnc2n1)NCc1cc(-c2ccc(F)c(C(F)(F)F)c2)no1 | 9.4 min |
| COc1ccc(NC(=O)c2ccccc2)cc1S(=O)(=O)Nc1ccc(Br)cc1 | 7.7 min |
| CN(C)CCNC(=O)c1nc2nc(-c3ccccc3)c(-c3cccc(Cl)c3)cc2n1C | > 30 min |
| O=C(c1nc(-c2ccc(Cl)cc2Cl)c2cnccn12)N1CCOCC1 | 23.6 min |
| O=C(Nc1ncc([S+](=O)([O-])N2CCOCC2)s1)c1cccc(Br)c1 | 23 min |
| NC(=O)C1CCN(c2nc(-c3ccc4c(c3)CCO4)cs2)CC1 | 5.55 min |
| O=c1cc(-c2ccc(O)c(O)c2)oc2cc(O)cc(O)c12 | > 30 min |
| O=[S+]([O-])(Nc1nccs1)c1ccc(NCc2ccc(Cl)c(Cl)c2)cc1 | 24 min |
| Cc1noc(-c2cn(C3CCN(C(=O)c4ccc(OC(F)(F)F)cc4)CC3)nn2)n1 | > 30 min |
| Cc1cc(C)nc(NC(=S)N2CCN(c3cc(C(F)(F)F)nc4ccccc34)CC2)c1 | > 30 min |

| SMILES | half-life |
| --- | --- |
| CCOC(=O)c1nnc(N[S+](=O)([O-])c2ccc(NC(=O)Cc3ccc(Cl)c(Cl)c3)cc2)s1 | 6 min |
| CCOc1ccc(NC(=O)CC2C(=O)N(c3ccc(F)cc3)C(=O)N2CCc2sccc2C)cc1 (centres undefined) | 1.33 min |
| Fc1ccc(-c2csc3ncnc(Sc4nnnn4-c4ccccc4)c23)cc1 | 1.6 min |
| COc1ccc(-c2nc3sc(CCNC(=O)C(C)(C)C)c(C)n3n2)cc1 | 9.33 min |
| COc1ccc(CN(C2CCCCC2C)S(=O)(=O)c2ccc(S(=O)(=O)N(C)C)cc2)cc1OC (centres undefined) | 1.6 min |
| FC(F)(F)c1cc(-c2ccc(CNc3nc(-c4ccccc4C(F)(F)F)nc4ccsc34)cc2)ccn1 | 14.8 min |
| O=C(NCc1ccccc1)c1nc(S(=O)(=O)Cc2ccc(F)cc2)ncc1Cl | 1.98 min |
| COc1ccc(Cl)cc1C(=O)Nc1nc(-c2ccccc2)cs1 | 24 min |
| CC(C)(N)C(=O)N[C@H](COCc1ccccc1)C(=O)N1CCC2(CC1)CN(S(C)(=O)=O)c1ccccc12 | 4.99 min |
| Cc1cccc(N2CCN(c3nc4ccccc4c4nnc(C)n34)CC2)c1C | 17.6 min |
| CCOc1ccc(CNc2ccc3c(c2)ncn3C)cc1 | 21 min |
| Cc1ccc(NC(=O)CSc2ncc(S(=O)(=O)c3ccc(C(C)C)cc3)c(=O)[nH]2)cc1C | 4.98 min |
| Cc1cccc(C)c1NC(=O)c1nc(SC(C)C)ncc1Cl | 1.38 min |
| CC(=O)c1sc(NC(=O)c2ccco2)nc1-c1ccccc1 | 1.8 min |
| Cc1c(Cl)cccc1NC(=O)CNS(=O)(=O)c1cccs1 | 5.47 min |
| O=C1Nc2ccc(-c3cccc(C(F)(F)F)c3)cc2C(=O)N2CCN(C(=O)COc3ccccc3)C[C@H]12 | 5.73 min |
| CCOc1ccc(C2c3c(oc4ccc(C)cc4c3=O)C(=O)N2CCCN(C)C)cc1 (centres undefined) | 13.6 min |
| Nc1nc(N)c2c(OCC3CCN(Cc4ccccc4F)CC3)cccc2n1 | > 30 min |
| Cc1c(-c2cccc3c(CCCOc4cccc5ccccc45)c(C(=O)O)n(Cc4cccnc4)c23)c(COc2ccc(N3CCN([S+](=O)([O-])N(C)C)CC3)cc2)nn1C | 12 min |
| Cc1cnc(SCc2ccccn2)nc1C1CCCN(C(=O)c2scc3c2CCCC3)C1 (centres undefined) | 1.01 min |
| NC(=O)C1CCN(c2ncc(Br)s2)CC1 | > 30 min |
| N#Cc1cccc(Nc2ncc(-c3cccc4ccccc34)o2)c1 | > 30 min |
| CCn1cc(C(=O)O)c(=O)c2cnc(N3CCN(C(=S)Nc4ccccc4)CC3)nc21 | > 30 min |
| Cn1cncc1[C@@](N)(c1ccc(Cl)cc1)c1ccc2c(c1)c(-c1cccc(Cl)c1)cc(=O)n2C | 9.54 min |
| COc1ccc(N(C)C(=O)c2cc3c(s2)-c2ccccc2OC3)cc1 | 7.6 min |
| COc1cc(OC)cc(-c2csc(N3CCC(C(N)=O)CC3)n2)c1 | 2.09 min |
